Reference: the NIST ThermoML archive (doi:10.1021/acs.jced.6b00867)
Numbers after ± are expanded uncertainties.

How the values were obtained:
[1] = refractive index (Na D-line) (dimensionless); details: 101 kPa, Liquid, Standard Abbe refractometry
[2] = 352.2 K; Liquid; Ebulliometric method (Recirculating still)
[3] = refractive index (Na D-line) (dimensionless); xn = mol fraction of the nth substance listed; details: 101 kPa, Liquid, Standard Abbe refractometry

O=CO [formic acid]
refractive index ([1]; 293.2 K): 1.3714 ± 0.0004
refractive index ([1]; 298.2 K): 1.3699 ± 0.0004
vapor or sublimation pressure [2]: 51 ± 4 kPa

O=CO [formic acid] + CC1CCC(=O)O1
refractive index ([3]; 293.2 K, x1 = 1): 1.3714 ± 0.0004
refractive index ([3]; 298.2 K, x1 = 1): 1.3699 ± 0.0004

CC1CCC(=O)O1 (stereo not drawn) [γ-valerolactone]
refractive index ([1]; 293.2 K): 1.4339 ± 0.0004
refractive index ([1]; 298.2 K): 1.4316 ± 0.0004

CC1CCC(=O)O1 (stereo not drawn) [γ-valerolactone] + O=CO
refractive index ([3]; 293.2 K, x2 = 0): 1.4339 ± 0.0004
refractive index ([3]; 293.2 K, x2 = 0.0697): 1.4314 ± 0.0004
refractive index ([3]; 293.2 K, x2 = 0.1233): 1.4295 ± 0.0004
refractive index ([3]; 293.2 K, x2 = 0.2013): 1.4265 ± 0.0004
refractive index ([3]; 293.2 K, x2 = 0.3394): 1.421 ± 0.0004
refractive index ([3]; 293.2 K, x2 = 0.4898): 1.4138 ± 0.0004
refractive index ([3]; 293.2 K, x2 = 0.593): 1.4078 ± 0.0004
refractive index ([3]; 293.2 K, x2 = 0.6258): 1.4056 ± 0.0004
refractive index ([3]; 293.2 K, x2 = 0.6744): 1.4021 ± 0.0004
refractive index ([3]; 293.2 K, x2 = 0.7799): 1.3941 ± 0.0004
refractive index ([3]; 293.2 K, x2 = 0.8539): 1.3875 ± 0.0004
refractive index ([3]; 293.2 K, x2 = 0.8902): 1.3839 ± 0.0004
refractive index ([3]; 293.2 K, x2 = 0.9828): 1.3739 ± 0.0004
refractive index ([3]; 298.2 K, x2 = 0): 1.4316 ± 0.0004
refractive index ([3]; 298.2 K, x2 = 0.0697): 1.4292 ± 0.0004
refractive index ([3]; 298.2 K, x2 = 0.1233): 1.4272 ± 0.0004
refractive index ([3]; 298.2 K, x2 = 0.2013): 1.4245 ± 0.0004
refractive index ([3]; 298.2 K, x2 = 0.3394): 1.4191 ± 0.0004
refractive index ([3]; 298.2 K, x2 = 0.4898): 1.4118 ± 0.0004
refractive index ([3]; 298.2 K, x2 = 0.593): 1.4058 ± 0.0004
refractive index ([3]; 298.2 K, x2 = 0.6258): 1.4036 ± 0.0004
refractive index ([3]; 298.2 K, x2 = 0.6744): 1.4002 ± 0.0004
refractive index ([3]; 298.2 K, x2 = 0.7799): 1.3921 ± 0.0004
refractive index ([3]; 298.2 K, x2 = 0.8539): 1.3856 ± 0.0004
refractive index ([3]; 298.2 K, x2 = 0.8902): 1.3821 ± 0.0004
refractive index ([3]; 298.2 K, x2 = 0.9828): 1.3719 ± 0.0004
